Data from patent publication US20040127492A1 (Pharmacia Corporation, priority 2002, published 2004).
Where two headings read alike, the source gives them in different places.

Legend:
[1] = biological target: MAPKAPK2 (MK-2) (Homo sapiens, UniProt P49137); assay: Determination of MK-2 IC50 (HSP-peptide phosphorylation, anion exchange resin capture assay); assay type: biochemical
Protocol: Determination of MK-2 IC50:
Recombinant MAPKAPK2 was phosphorylated at a concentration of 42-78 μM by incubation with 0.23 μM of active p38α in 50 mM HEPES, 0.1 mM EDTA, 10 mM magnesium acetate, and 0.25 mM ATP, pH 7.5 for one hour at 30° C.
The phosphorylation of HSP-peptide ([…]) by MAPKAPK2 was measured using an anion exchange resin capture assay method. The reaction was carried out in 50 mM β-glycerolphosphate, 0.04% BSA, 10 mM magnesium acetate, 2% DMSO and 0.8 mM dithiotheritol, pH 7.5 in the presence of the HSP-peptide with 0.2 μCi [γ^33P]ATP and 0.03 mM ATP. The reaction was initiated by the addition of 15 nM MAPKAPK2 and was allowed to incubate at 30° C. for 30 min. The reaction was terminated and [γ^33P]ATP was removed from solution by the addition of 150 μl of AG 1×8 ion exchange resin in 900 mM sodium formate pH 3.0. A 50 μl aliquot of head volume was removed from the quenched reaction mixture and added to a 96-well plate, 150 μl of Microscint-40 (Packard) was added and the amount of phosphorylated-peptide was determined. Allow the Microscint to sit in the plates for 60 minutes prior to counting.
Compounds are evaluated as potential inhibitors of the MK-2 kinase by measuring their effects on MK-2 phosphorylation of the peptide substrate. Compounds may be screened initially at two concentrations prior to determination of IC50 values. Screening results are expressed as percent inhibition at the concentrations of compound tested. For IC50 value determinations, Compounds are tested at six concentrations in ten-fold serial dilutions with each concentration tested in triplicate. Results are expressed as IC50 values in micromolar. The assay is performed at a final concentration of 2% DMSO.

[2] = biological target: MK-3 (Homo sapiens, UniProt Q16644); assay: MK-3 inhibition IC50 (similar method to MK-2, with appropriate modifications); assay type: biochemical
Protocol: In practice, the selectivity of a cyclic pyrazole MK-2 inhibitor varies depending upon the condition under which the test is performed and on the inhibitors being tested. However, for the purposes of this specification, the selectivity of a cyclic pyrazole MK-2 inhibitor inhibitor can be measured as a ratio of the in vitro or in vivo IC50 value for inhibition of MK-3, divided by the IC50 value for inhibition of MK-2 (IC50 MK-3/IC50 MK-2). […] The MK-2 or MK-3 inhibiting activity of any of the compounds described herein can be determined by any one of several methods that are well known to those having skill in the art of enzyme activity testing. […] A similar method, with appropriate modifications, Can be used to measure MK-3 inhibitory activity. In addition, the efficacy of one of the present MK-2 inhibiting compounds in therapeutic applications can be determined by testing for inhibition of TNFα production in cell culture and in animal model assays.

[3] = Table 2, pyrazolylpyrazole MK-2 inhibitors, read-out: MK-2 Avg. IC50
[4] = Table 2, pyrazolylpyrazole MK-2 inhibitors, read-out: MK-3 Avg. IC50
[5] = Table 5, other cyclic pyrazole MK-2 inhibiting compounds, read-out: MK-2 Avg. IC50
[6] = Table 5, other cyclic pyrazole MK-2 inhibiting compounds, read-out: MK-3 Avg. IC50
[7] = Table 1, phenoxypyrazole MK-2 inhibitors, read-out: MK-2 Avg, IC50
[8] = Table 1, phenoxypyrazole MK-2 inhibitors, read-out: MK-3 Avg. IC50

MK-3, sequence (Q16644 whole entry, species assumed): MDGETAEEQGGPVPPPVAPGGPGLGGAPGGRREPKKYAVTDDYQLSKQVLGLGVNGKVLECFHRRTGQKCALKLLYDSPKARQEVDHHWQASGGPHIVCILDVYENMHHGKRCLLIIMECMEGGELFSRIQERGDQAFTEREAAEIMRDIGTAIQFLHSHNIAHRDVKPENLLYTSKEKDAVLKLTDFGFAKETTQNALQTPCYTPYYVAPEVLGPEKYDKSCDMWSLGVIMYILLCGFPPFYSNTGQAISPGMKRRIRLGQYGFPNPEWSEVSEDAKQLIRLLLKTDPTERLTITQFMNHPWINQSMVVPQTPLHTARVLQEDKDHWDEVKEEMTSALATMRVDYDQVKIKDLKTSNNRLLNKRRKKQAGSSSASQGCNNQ
MAPKAPK2 (MK-2), sequence (P49137 whole entry, species assumed): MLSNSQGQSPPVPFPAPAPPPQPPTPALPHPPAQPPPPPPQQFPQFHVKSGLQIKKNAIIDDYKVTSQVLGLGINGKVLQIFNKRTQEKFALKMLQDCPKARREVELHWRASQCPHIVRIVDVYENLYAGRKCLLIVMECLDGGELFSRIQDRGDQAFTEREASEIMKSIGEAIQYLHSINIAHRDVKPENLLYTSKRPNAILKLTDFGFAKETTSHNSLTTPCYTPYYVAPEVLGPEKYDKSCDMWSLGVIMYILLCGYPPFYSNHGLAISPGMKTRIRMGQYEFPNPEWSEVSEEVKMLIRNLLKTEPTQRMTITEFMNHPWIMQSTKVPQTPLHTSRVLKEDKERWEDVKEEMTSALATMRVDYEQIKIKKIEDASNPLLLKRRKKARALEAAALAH

Structure (SMILES)	IC50 [1, 7] [µM]	IC50 [2, 8] [µM]	IC50 ([1]; read-out: MK-2 Avg. IC50) [µM]	further results
C=CCn1nc2c(c1C(=O)OCC)CCc1c-2cnn1C(c1ccccc1)(c1ccccc1)c1ccccc1 [Example 74]	–	–	–	IC50 [1, 3]: ≥ 200 µM; IC50 [2, 4]: ≥ 200 µM
O=C1NCCCn2nc3c(c21)CCc1cnc(-c2cccnc2)nc1-3 [Example 5]	–	–	–	IC50 ([1]; Table 4, pyrimidylpyrazole MK-2 inhibitors, read-out: MK-2 Avg. IC50): 1.58 µM; IC50 ([2]; Table 4, pyrimidylpyrazole MK-2 inhibitors, read-out: NK-3 Avg. IC50): 168 µM
O=C1NCCn2nc3c(c21)CCc1cnc(/C=C/c2ccc(F)c(F)c2)cc1-3 [Example 7]	–	–	–	IC50 [1, 5]: 0.623 µM; IC50 [2, 6]: > 20 µM
O=C(O)c1nn(CC(F)(F)F)c2c1CCc1[nH]ncc1-2 [Example 42]	–	–	–	IC50 [1, 3]: 180 µM; IC50 [2, 4]: ≥ 200 µM
Cc1noc(C)c1-c1cc2c(cc1O)CCc1c-2nn(CCCN)c1C(=O)O [Example 55]	136	169	–	–
O=C(O)c1c2c(nn1CCCNCCc1ccc([N+](=O)[O-])cc1)-c1ccncc1CC2 [Example 69]	–	–	0.765	IC50 ([2]; read-out: MK-3 Avg. IC50): 11.9 µM
O=C1NCCCn2nc3c(c21)CCc1[nH]nc(SCc2ccccc2)c1-3 [Example 16]	–	–	–	IC50 [1, 3]: 23.8 µM; IC50 [2, 4]: 56 µM
Cc1ccc(C(C)CCNCCCn2nc3c(c2C(=O)O)CCc2cnccc2-3)o1 (stereo not drawn) [Example 59]	–	–	0.574	IC50 ([2]; read-out: MK-3 Avg. IC50): 22.5 µM
COC(=O)c1[nH]nc2c1CCc1cc(O)ccc1-2 [Example 181]	> 200	> 200	–	–
NC(=O)c1[nH]nc2c1CCc1[nH]ncc1-2 [Example 17]	–	–	–	IC50 [1, 3]: 28.4 µM; IC50 [2, 4]: 129 µM
COc1ccc(-n2nc(C(=O)O)c3c2-c2ccc(OC)cc2CC3)cc1 [Example 162]	> 200	> 200	–	–
COc1ccc(CCNCCCn2nc3c(c2C(=O)O)CCc2cnccc2-3)cc1OC [Example 100]	–	–	2.33	IC50 ([2]; read-out: MK-3 Avg. IC50): 48.1 µM
COC(=O)c1nn(-c2ccc(Cl)cc2)c2c1CCc1cc(OC)ccc1-2 [Example 159]	> 200	> 200	–	–
COc1cc2c(cc1-c1ccccc1Cl)-c1nn(CCCNC(=O)OC(C)(C)C)c(C(=O)O)c1CC2 [Example 52]	109	> 200	–	–
O=C1NCCn2nc3c(c21)CCc1cnc(/C=C/c2ccccc2)cc1-3 [Example 36]	–	–	0.21	IC50 ([2]; read-out: MK-3 Avg. IC50): 11.5 µM
O=C1NCCn2nc3c(c21)CCc1cnc(-c2cccc(O)c2)cc1-3 [Example 27]	–	–	0.148	IC50 ([2]; read-out: MK-3 Avg. IC50): 2.51 µM
CC(C)(CCc1cc2c(cc1O)CCc1c-2nn(CCCN)c1C(=O)O)CC(=O)O [Example 26]	22.2	135	–	–
CC(C)(C)OC(=O)NCCCn1nc2c(c1C(=O)O)CCc1cc(O)ccc1-2 [Example 72]	181	> 200	–	–
Nc1cc2c(cc1O)CCc1c-2nn2c1C(=O)NCCC2 [Example 45]	88.7	> 200	–	–
NCCn1nc2c(c1C(=O)O)CCc1cnc(/C=C/c3ccccc3)cc1-2 [Example 37]	–	–	–	IC50 [1, 5]: 0.0413 µM; IC50 [2, 6]: 1.21 µM
O=C(O)c1nn(-c2ccccc2)c2c1CCc1[nH]ncc1-2 [Example 71]	–	–	–	IC50 [1, 3]: ≥ 200 µM; IC50 [2, 4]: ≥ 200 µM
COc1ccccc1-c1cc2c(cn1)CCc1c-2nn(CCCN)c1C(=O)O [Example 66]	–	–	0.632	IC50 ([2]; read-out: MK-3 Avg. IC50): 6.87 µM
CN(C)c1cccc(-c2cc3c(cn2)CCc2c-3nn3c2C(=O)NCCC3)c1 [Example 53]	–	–	0.483	IC50 ([2]; read-out: MK-3 Avg. IC50): 4.92 µM
NCCCn1nc2c(c1C(=O)O)CCc1cnc(-c3ccc(C(F)(F)F)cc3)cc1-2 [Example 15]	–	–	0.0567	IC50 ([2]; read-out: MK-3 Avg. IC50): 0.209 µM
CN(C)c1ccc(-c2cc3c(cn2)CCc2c-3nn3c2C(=O)NCC3)cc1 [Example 42]	–	–	0.272	IC50 ([2]; read-out: MK-3 Avg. IC50): 36 µM

Structure (SMILES)	IC50 [1, 7] [µM]	IC50 [2, 8] [µM]	IC50 ([1]; read-out: MK-2 Avg. IC50) [µM]	further results
NC(=O)c1[nH]nc2c1CCc1c-2ccc(O)c1Br [Example 20]	17.6	> 200	–	–
O=C(O)c1[nH]nc2c1CCc1cc(O)c(O)cc1-2 [Example 28]	28.3	> 200	–	–
O=C(O)c1c2c(nn1CCCNCCc1ccc(Cl)c(Cl)c1)-c1ccncc1CC2 [Example 34]	–	–	0.201	IC50 ([2]; read-out: MK-3 Avg. IC50): 10.3 µM
COC(=O)c1nn(-c2ccc(S(C)(=O)=O)cc2)c2c1CCc1cc(OC)ccc1-2 [Example 164]	> 200	> 200	–	–
O=C(O)c1c2c(nn1CCCNS(=O)(=O)Cc1ccc(Cl)cc1)-c1cc(-c3cnc4ccccc4c3)ncc1CC2 [Example 54]	–	–	–	IC50 ([2]; read-out: MK-3 Avg. IC50): 6.46 µM
O=C(O)c1nn(CC(F)(F)F)c2c1CCc1c-2cnn1C(c1ccccc1)(c1ccccc1)c1ccccc1 [Example 22]	–	–	–	IC50 [1, 3]: 68.3 µM; IC50 [2, 4]: 195 µM
COC(=O)c1c2c(nn1CCCNC(=O)OC(C)(C)C)-c1cc(Br)c(OC)cc1CC2 [Example 184]	> 200	> 200	–	–
NC(=O)c1nn(Cc2ccccc2)c2c1CCc1[nH]ncc1-2 [Example 34]	–	–	–	IC50 [1, 3]: 120 µM; IC50 [2, 4]: ≥ 200 µM
COc1cc2c(cc1-c1cccc(S(C)(=O)=O)c1)-c1nn(CCCNC(=O)OC(C)(C)C)c(C(=O)O)c1CC2 [Example 57]	143	> 200	–	–
O=C1NCCn2nc3c(c21)CCc1cnc(-n2ccnc2)cc1-3 [Example 13]	–	–	0.0523	IC50 ([2]; read-out: MK-3 Avg. IC50): 5.34 µM
O=C(O)c1c2c(nn1CCO)-c1cn[nH]c1CC2 [Example 37]	–	–	–	IC50 [1, 3]: 139 µM; IC50 [2, 4]: ≥ 200 µM
NC(=O)c1nn(CCO)c2c1CCc1[nH]ncc1-2 [Example 23]	–	–	–	IC50 [1, 3]: 72.2 µM; IC50 [2, 4]: ≥ 200 µM
COC(=O)c1nn(-c2ccc(S(N)(=O)=O)cc2)c2c1CCc1cc(OC)ccc1-2 [Example 172]	> 200	> 200	–	–
COc1cc2c(cc1CCC(F)(F)F)-c1nn(CCCNC(=O)OC(C)(C)C)c(C(=O)O)c1CC2 [Example 54]	–	> 200	–	–
Nc1cccc(-c2cc3c(cc2O)CCc2c-3nn3c2C(=O)NCCC3)c1 [Example 51]	105	–	–	–
O=S(=O)(Cc1ccc(Cl)cc1)NC1CCCn2nc3c(c21)CCc1cnccc1-3 (stereo not drawn) [Example 232]	–	–	78.7	–
O=C1NCCCn2nc3c(c21)CCc1cnc(-c2cccc([N+](=O)[O-])c2)cc1-3 [Example 50]	–	–	0.453	–
O=C1NCCn2nc3c(c21)CCc1cnc(N2CCOCC2)cc1-3 [Example 168]	–	–	11.9	–
NC(=O)c1[nH]nc2c1CCc1cnccc1-2 [Example 163]	–	–	10.4	–
O=C1NCCn2nc3c(c21)CCc1c-3ccnc1Cl [Example 194]	–	–	27.7	–
Cc1ccc(S(=O)(=O)NC(=O)NCCCn2nc3c(c2C(=O)O)CCc2cnccc2-3)cc1 [Example 233]	–	–	80.6	–
O=C(NCCCn1nc2c(c1C(=O)O)CCc1cnccc1-2)c1ccccn1 [Example 261]	–	–	129	–
NC(=O)CCn1nc(C(N)=O)c2c1-c1cn[nH]c1CC2 [Example 56]	–	–	–	IC50 [1, 3]: ≥ 200 µM
O=C(NCCCn1nc2c(c1C(=O)O)CCc1cnccc1-2)c1ccccc1 [Example 227]	–	–	68	–
O=C1NC(CNCc2ccc(Cl)cc2)Cn2nc3c(c21)CCc1cnccc1-3 (stereo not drawn) [Example 193]	–	–	27.3	–
